Data set [1] concerns S. aureus ATCC 29213. The format is cell-based, Staphylococcus aureus. The note with it: S. aureus; 95% serum vs TSB. The procedure:
(§1) The impact of human serum on the antibacterial activity of selected paenipeptin analogues was determined using a procedure similar to that used for MIC determination as described above except that the microbiological medium was replaced by human serum (MP Biomedicals, Solon, Ohio). Paenipeptin analogues were two-fold diluted in 100% human serum and mixed with an equal volume of 90% serum containing approximately 1.5×10^5 CFU/mL of E. coli ATCC 25922 or S. aureus ATCC 29213. The final paenipeptin concentrations ranged from 0.5-64 μg/mL in 95% serum. The MIC in the presence of serum was then tested as described above.

Data set [2] concerns E. coli ATCC 25922. In kind it is cell-based, Escherichia coli. The source says:
(§2) The surviving cells from each antimicrobial concentration with no visible growth were enumerated by plating on tryptic soy agar (TSA). MBC was defined as the lowest concentration of the antimicrobial agent that led to at least a 99.9% reduction in the number of viable bacterial cells relative to the initial inoculum. There were three independent experiments with one replicate in each experiment.

Data set [3] relates to S. aureus ATCC 29213. As to the kind of experiment: Time-kill assay. The note with it: for reduction of viable cells: after 4 h. In kind it is cell-based, Staphylococcus aureus. The procedure:
(§3) The surviving cells after antimicrobial treatment were enumerated at 0, 2, 4, 6 and 24 h by plating on TSA. There were three independent experiments with one replicate in each experiment

In data set [4] the test system is P. aeruginosa ATCC 27853 biofilm. As to the kind of experiment: Established catheter-associated biofilm in vitro. The format is cell-based, Pseudomonas aeruginosa. The note with it: 40× MIC (40 μg/ml). The procedure:
(§4) Each well was inoculated with the methicillin-resistant S. aureus strain LAC or P. aeruginosa ATCC 27853 to an OD600nm of 0.05. […] After 72 h of exposure, catheters were rinsed with PBS, followed by sonication (for S. aureus) or vigorous vortexing (for P. aeruginosa) to quantitatively recover adherent bacteria. Viable S. aureus or P. aeruginosa cells were enumerated by plating serial dilutions on TSA.

Data set [5] has as its system Escherichia coli ATCC 25922. In kind it is in vitro ADME. The procedure:
To determine the stability of peptides in human serum, paenipeptin analogues were added into 100% human serum to a final concentration of 64 μg/ml. The mixtures were incubated at 37° C. and samples were withdrawn at 0, 6, 12 and 24 h. […] The residual antibacterial activity after incubation in human serum was compared to the non-treated control.

Data set [6] concerns Escherichia coli ATCC 25922. The format is cell-based. To be noted: ATCC 25922.
Protocol: The minimum inhibitory concentration (MIC) of paenipeptin analogues was determined using the broth microdilution method (Wirker, M. A. Methods for Dilution Antimicrobial Susceptibility Tests for Bacteria that Grow Aerobically: Approved Standard M07-A8; Clinical and Laboratory Standards Institute, Wayne, Pa., 2009). Seven reference strains (Acinetobacter baumannii ATCC 19606, Escherichia coli ATCC 25922, Klebsiella pneumoniae ATCC 13883, Pseudomonas aeruginosa ATCC 27853, Enterococcus faecium ATCC 19434, Staphylococcus aureus ATCC 29213 and methicillin-resistant S. aureus ATCC 43300) were subjected to MIC testing.
(§6) Paenipeptin analogues were two-fold diluted in tryptic soy broth (TSB; Becton Dickinson) and mixed with an equal volume of bacterial suspensions in TSB containing approximately 1.5×10^5 colony-forming units (CFU)/mL in a clear UV-sterilized 96-well microtiter plate (NBS, Corning Inc., Corning, N.Y.). […] The microtiter plate was incubated at 37° C. for 18-20 h.
Data set [7] deals with Acinetobacter baumannii ATCC 19606. In kind it is cell-based. To be noted: A. baumannii.
Data set [8] has as its system Klebsiella pneumoniae ATCC 13883. The format is cell-based. To be noted: K. pneumoniae.
Data set [9] concerns E. coli ATCC 25922. The format is cell-based, Escherichia coli. To be noted: E. coli; 95% serum vs TSB. As for the experimental part: as §1
Another data set has as its system rabbit red blood cells. As to the kind of experiment: Hemolytic activity. The format is cell-based. To be noted: relative to Triton X-100. In short, it runs like this: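 Washed defibrinated rabbit RBCs in PBS pH 7.2 incubated 30 min at 37 °C with paenipeptin analogues at 16–128 μg/mL final. Released hemoglobin read at 415 nm in the supernatant; % hemolysis relative to 0.1% Triton X-100.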

The test system of data set [10] is S. aureus ATCC 29213. As to the kind of experiment: Impact of purified LTA on bactericidal activity. The note with it: analogue at 32 μg/mL, 60 min. The format is cell-based, Staphylococcus aureus.
The test system of data set [11] is P. aeruginosa ATCC 27853. The data set is described as follows: Time-kill assay. The format is cell-based, Pseudomonas aeruginosa. The procedure: as §3
For data set [12], the system named is nine carbapenem-resistant clinical isolates from the FDA-CDC Antibiotic Resistance Bank. To be noted: range over nine carbapenem-resistant clinical isolates.
Protocol: The minimum inhibitory concentration (MIC) of paenipeptin analogues was determined using the broth microdilution method (Wirker, M. A. Methods for Dilution Antimicrobial Susceptibility Tests for Bacteria that Grow Aerobically: Approved Standard M07-A8; Clinical and Laboratory Standards Institute, Wayne, Pa., 2009).
as §6
There were at least three independent experiments with one replicate in each experiment.
In data set [13] the test system is P. aeruginosa ATCC 27853. As to the kind of experiment: Impact of purified LPS on bactericidal activity. The note with it: LPS 100 μg/ml; analogue at 16 μg/mL; 60 min. The format is cell-based, Pseudomonas aeruginosa. The procedure: For studies with LPS, P. aeruginosa ATCC 27853 was diluted with TSB to contain approximately 10^6 CFU/mL. […] The mixtures were incubated at 37° C. with agitation at 200 rpm for 60 min. Surviving cells were quantified by plating on TSA. There were three independent experiments with one replicate in each experiment. […] There were four independent experiments with one replicate in each experiment.

Data set [14] relates to methicillin-resistant S. aureus strain LAC biofilm. The data set is described as follows: Established catheter-associated biofilm in vitro. In kind it is cell-based, Staphylococcus aureus. The note with it: for reduction of viable biofilm-associated cells: 72 h. As for the experimental part: as §4
In a further data set the test system is A. baumannii ATCC 19606. The format is cell-based, Acinetobacter baumannii.
Text: as §2

Data set [15] deals with P. aeruginosa ATCC 27853. In kind it is cell-based, Pseudomonas aeruginosa.
Text: as §2

For data set [16], the system named is A. baumannii FDA-CDC AR 0083. The data set is described as follows: microbe, parasite or virus in culture. The note with it: Acinetobacter baumannii, read-out: MIC alone.
Data set [17] deals with A. baumannii FDA-CDC AR 0037. As to the kind of experiment: microbe, parasite or virus in culture. To be noted: Acinetobacter baumannii, read-out: MIC alone.
Data set [18] has as its system A. baumannii FDA-CDC AR 0063. As to the kind of experiment: microbe, parasite or virus in culture. The note with it: Acinetobacter baumannii, read-out: MIC alone.
Data set [19] has as its system K. pneumoniae FDA-CDC AR 0068. As to the kind of experiment: microbe, parasite or virus in culture. To be noted: Klebsiella pneumoniae, read-out: MIC alone.
The test system of data set [20] is Klebsiella pneumoniae ATCC 13883. The data set is described as follows: MIC of antibiotics with or without paenipeptin analogues (potentiation). The format is cell-based. To be noted: Klebsiella pneumoniae, ATCC13883. An excerpt:
(§5) Gram-negative bacteria, including Acinetobacter and Klebsiella, are intrinsically resistant to the hydrophobic antibiotic rifampicin.

The subject of data set [21] is Acinetobacter baumannii ATCC 19606. Described as above. To be noted: Acinetobacter baumannii, ATCC19606; A. baumannii ATCC 19606; rifampicin alone; read-out: MIC of rifampicin at 0 μg/mL of paenipeptin analogues. The format is cell-based.
Text: as §5

The subject of data set [22] is K. pneumoniae FDA-CDC AR 0097. The data set is described as follows: microbe, parasite or virus in culture. To be noted: Klebsiella pneumoniae, read-out: MIC alone.
Data set [23] relates to K. pneumoniae FDA-CDC AR 0034. The data set is described as follows: microbe, parasite or virus in culture. The note with it: Klebsiella pneumoniae, read-out: MIC alone.
In data set [24] the test system is K. pneumoniae FDA-CDC AR 0044. The data set is described as follows: microbe, parasite or virus in culture. The note with it: Klebsiella pneumoniae, read-out: MIC alone.
Data set [25] deals with A. baumannii FDA-CDC AR 0070. The data set is described as follows: microbe, parasite or virus in culture. The note with it: Acinetobacter baumannii, read-out: MIC alone.
For data set [26], the system named is A. baumannii FDA-CDC AR 0052. The data set is described as follows: microbe, parasite or virus in culture. To be noted: Acinetobacter baumannii, read-out: MIC alone.
The test system of data set [27] is A. baumannii FDA-CDC AR 0063. The data set is described as follows: Time-kill kinetics in 95% human serum, alone and combined. The format is cell-based, Acinetobacter baumannii. To be noted: A. baumannii AR 0063, 24 h. As for the experimental part:
Bacterial viable counts were determined at 0, 2, 4, 6, and 24 h after antimicrobial treatment. Bacterial surviving counts at 24 h endpoints were subjected to analysis of variance (ANOVA) followed by Tukey's honest significant difference (HSD) tests using SPSS Statistics (version 24; SPSS, Inc., Chicago, Ill., USA).
To further test the therapeutic potential of paenipeptin analogues, the time-kill kinetics assays of paenipeptins alone or in combination with other antibiotics were performed in 95% human serum in vitro. Without antimicrobial treatment, the population of A. baumannii FDA-CDC AR 0063 increased from 5.8 log to 9.3 log within 24 h. […] (FIG. 7A).

The subject of data set [28] is K. pneumoniae FDA-CDC AR 0080. The data set is described as follows: microbe, parasite or virus in culture. To be noted: Klebsiella pneumoniae, read-out: MIC alone.

≈ marks a conversion by molar mass, not a printed value. Like-named read-outs stand apart in the source and are kept apart here. Where a SMILES comes first, the peptide text is derived from it. [ ]: non-standard residue; d: D form. Cha = N[C@@H](CC1CCCCC1)C(=O)O; Dab = NCC[C@H](N)C(=O)O Some results are limits rather than exact numbers.

In general, MBC refers to the lowest tested concentration that kills the bacteria rather than only halting them. The low end stands for more potent killing, the high end for less potent killing.

On to `CC(C)C[C@H](NC(=O)[C@@H](Cc1ccccc1)NC(=O)[C@H](CCN)NC(=O)[C@H](Cc1ccccc1)NC(=O)[C@H](CCN)NC(=O)[C@@H](N)CC1CCCCC1)C(=O)N[C@@H](CCN)C(=O)N[C@H](CC(C)C)C(=O)N[C@@H](Cc1ccccc1)C(=O)N[C@@H](CO)C(N)=O` [Analogue 17] (H-[Cha][Dab]F[Dab][dF]L[Dab][dL]FS-NH2), for which the “reduction in activity in the presence of human serum” value in the data set with S. aureus ATCC 29213 [1] and in the data set with E. coli ATCC 25922 [9] was 88-94% throughout. The MBC fell in the range of 8 to 16 µg/mL against E. coli ATCC 25922 [2], 4 to 8 µg/mL in the data set on A. baumannii ATCC 19606 and 2 to 4 µg/mL against P. aeruginosa ATCC 27853 [15]. Further, the regrowth entry in the data set with S. aureus ATCC 29213 [3] (8 μg/ml) is “Regrowth”. For the same compound, the “reduction of viable cells” value in the data set with S. aureus ATCC 29213 [3] (16 μg/ml) came to 3.1 logs; in the data set with S. aureus ATCC 29213 [3] (32 μg/ml), 5.4 logs; in the data set with P. aeruginosa ATCC 27853 [11] (8 μg/ml, 2 h) it was 2.2 log; in the data set on P. aeruginosa ATCC 27853 [11] (16 μg/ml, within 2 h) it was 3.7 logs; in the data set with P. aeruginosa ATCC 27853 [11] (32 μg/ml, within 2 h), 5.1 logs. Moreover, the “reduction of viable cells in established biofilm” value in data set [4] came to 2.6 log. Besides, the “MIC after incubation in human serum at 37° C.” value fell in the range of 4 to 8 µg/mL in data set [5] (ATCC 25922, 0 h); 4 to 8 µg/mL in data set [5] (ATCC 25922, 6 h); 4 to 8 µg/mL in [5] (ATCC 25922, 12 h). The results for the MIC in data set [6] and in [12] were 0.5 to 1 µg/mL and 0.5 to 2 µg/mL, respectively. Further, the “improvement in antibacterial activity by comparison to compound 8” value in [7] and in [8] was at least 4 fold in each case. The Hemolysis with rabbit red blood cells (16 μg/mL) is on record as 0.60 ± 0.18%; with rabbit red blood cells (32 μg/mL), 2.46 ± 0.34%; with rabbit red blood cells (64 μg/mL), 11.02 ± 0.99%; with rabbit red blood cells (128 μg/mL), 34.6 ± 0.91%. For the same compound, the “impact of purified LTA on antibacterial activity” value with S. aureus ATCC 29213 [10] (LTA 50 μg/ml) is “some inhibition”; with S. aureus ATCC 29213 [10] (LTA 100 μg/mL), “significantly reduced the antibacterial activity”. The “regrowth at 24 h” value in the data set on P. aeruginosa ATCC 27853 [11] (8 μg/ml, 24 h) was “significant bacterial regrowth was observed”. Also, the “viable cells after 24 h exposure” value is “no viable cells were detected” in the data set with P. aeruginosa ATCC 27853 [11] (16 μg/ml, 24 h) and “no viable cells were detected” with P. aeruginosa ATCC 27853 [11] (32 μg/ml, 24 h). For the same compound, the “impact of purified LPS on bactericidal activity” value in the data set on P. aeruginosa ATCC 27853 [13] is reported as “neutralized the bactericidal activity”. Besides, the figures for the “reduction of viable biofilm-associated cells” value in data set [14] (40 μg/mL (5×MIC)) and in data set [14] (160 μg/mL (20×MIC)) were 3 log and 5 log, respectively. For the same compound, the “catheters completely cleared of viable bacteria” value in [14] (20 times MIC, six catheters) is given as 50%.

With `CO[C@H]1/C=C/O[C@@]2(C)Oc3c(C)c(O)c4c(O)c(c(/C=N/N5CCN(C)CC5)c(O)c4c3C2=O)NC(=O)/C(C)=C\C=C\[C@H](C)[C@H](O)[C@@H](C)[C@@H](O)[C@@H](C)[C@H](OC(C)=O)[C@@H]1C` [rifampicin], the MIC stood at 32 µg/mL (≈ 38.9 µM) in data set [16]; 2 µg/mL (≈ 2.43 µM) in data set [17]; 1 µg/mL (≈ 1.22 µM) in data set [18]; 32 µg/mL (≈ 38.9 µM) in [19]; 16 µg/mL in [20] (K. pneumoniae ATCC 13883, rifampicin alone, read-out: MIC of rifampicin at 0 μg/mL of paenipeptin analogues); 19.4 µM in [20] (K. pneumoniae, read-out: MIC of rifampicin alone). Also, the MIC in [21] was 16 µg/mL; in data set [22], 32 µg/mL (≈ 38.9 µM); in data set [23], 16 µg/mL (≈ 19.4 µM); in data set [24], 32 µg/mL (≈ 38.9 µM); in data set [25], 1 µg/mL (≈ 1.22 µM); in data set [26], 1 µg/mL (≈ 1.22 µM). In addition, the MIC in [28] was over 32 µg/mL. For the same compound, in data set [27], the “log reduction of cell population, single agent at 4 μg/ml” value was determined as 1.4 log.

For the origin of these results see US11364275B2, “Linear lipopeptide paenipeptins and methods of using the same” (priority 2017, dated 2022).
